Paper PMC11148078, “Potent activity of polymyxin B is associated with long-lived super-stoichiometric accumulation mediated by weak-affinity binding to lipid A” (Nature Communications, 2024)
“Also recorded” adds a separate entry of the source. Bridge positions count the residues as written; N and C are the ends. Square brackets hold non-standard residues; d marks the D form. Peptide text beside a SMILES is read from it. * marks the point of attachment. ξ: configuration not given here. Hexanoyl(4ξ-Me) = CCC(C)CCC(=O)*; dOrn = NCCC[C@@H](N)C(=O)O; Orn = NCCC[C@H](N)C(=O)O

Legend:
[1] = test system: resistant-OMVs (E. coli PmrA^G53E); test: Single-cycle kinetic SPR binding to immobilized resistant-OMVs; conditions: serial doubling injections, C1 chip
Experimental: (§1) Polymyxin B was covalently attached to a C1 chip (Series S Sensor Chip C1, Cytiva) using an amine coupling kit (Cytiva). Cartoon in Fig. 1A created with BioRender (biorender.com). Briefly, equal amounts of reagents N-hydroxysuccinimide and 1-ethyl-3-(3-dimethylaminopropyl) carbodiimide hydrochloride were mixed as per manufacturer’s instructions and immediately added to the gold chip surface for 2 min, washed with distilled deionized water, and dried. Sufficient polymyxin B (1 mM in 1 M HEPES buffer, pH 8) was added to cover the chip surface, incubated at room temperature for 1 h, washed as before, and then incubated with 1 M ethanolamine hydrochloride-NaOH, pH 8.5, for 1 min. The chip surface was washed with water, dried as previously described, immediately loaded into a Biacore S200, and primed with running buffer (described below) to equilibrate the system. C1 chips were used for multiple runs and discarded upon removal from the Biacore S200.
SCK C1-chip SPR experiments were performed in running buffer (Dulbecco’s phosphate-buffered salt solution 1x without calcium or magnesium (Fisher Scientific), pH 7.4, with 0.0005% tween-80 (Sigma) passed through a 0.2 µm filter) unless otherwise indicated. Inclusion of tween-80 prevented loss of polymyxin to the plastics[34] (also see Supplementary Information Methods). For experiments with brevicidine, which was suspended in DMSO, 0.125% DMSO was included in the running buffer. OMVs were diluted from frozen stocks to approximately 20–30 µg/ml protein in the OMV buffer. Capture of OMVs was performed at a low flow rate ([…]) for 300 s over the test channel(s) followed by a 300 s stabilization period. All subsequent steps were at a flow rate of 40 µl/ml. For single cycle kinetics, two-fold dilutions were injected over the channel(s) loaded with OMVs and a reference channel without OMVs for 30 s contact and 480 s dissociation. […]

E. coli mcr-1+rifampicin = test: Rifampicin potentiation / outer membrane permeability, E. coli mcr-1; assay type: cell-based
Experimental: (§2) Bacterial strains and plasmids are listed in SI Table S5. LB growth media was prepared according to manufacturer’s instructions and supplemented with 0.2% arabinose and carbenicillin (50 μg/mL) for the strains containing pBAD24-mcr1 plasmid. Cultures were started by inoculating 3 ml LB with 1–2 colonies from fresh overnight plates and grown at 37 °C until in log phase. Modified minimal inhibitory concentration (MIC) assays were performed in 96-well round bottom polystyrene plates (Corning) with a final volume of 100 µl in LB supplemented with tween-80 at 0.0005%. […] Polymyxin B sulfate (TCI Co. Ltd), polymyxin B nonapeptide (PMBN) (Sigma), and brevicidine (Genentech) were diluted directly in the assay plates. Bacteria were diluted in LB with tween-80 0.0005% and added to a final OD600 of 0.0005. Growth was measured via OD600 on a SpectraMax M5 plate reader after overnight static growth at 37 °C with humidity.

E. coli mcr1 = assay type: cell-based; conditions: pBAD-mcr-1
Experimental: as §2

E. coli PmrA^G53E = assay type: cell-based
Experimental: as §2

S. aureus WT = assay type: cell-based; conditions: LB + 0.0005% tween-80, overnight 37 °C
Experimental: as §2

wt-OMVs [2] = test: Single-cycle kinetic SPR binding to immobilized wt-OMVs; parameters: species or system E. coli; conditions: serial doubling injections, C1 chip
Experimental: as §1
SCK C1-chip SPR experiments were performed in running buffer (Dulbecco’s phosphate-buffered salt solution 1x without calcium or magnesium (Fisher Scientific), pH 7.4, with 0.0005% tween-80 (Sigma) passed through a 0.2 µm filter) unless otherwise indicated. Inclusion of tween-80 prevented loss of polymyxin to the plastics[34] (also see Supplementary Information Methods). For experiments with brevicidine, which was suspended in DMSO, 0.125% DMSO was included in the running buffer. OMVs were diluted from frozen stocks to approximately 20–30 µg/ml protein in the OMV buffer. Capture of OMVs was performed at a low flow rate ([…]) for 300 s over the test channel(s) followed by a 300 s stabilization period. All subsequent steps were at a flow rate of […]. For single cycle kinetics, two-fold dilutions were injected over the channel(s) loaded with OMVs and a reference channel without OMVs for 30 s contact and 480 s dissociation. To regenerate chips, 0.5% SDS (desorb 1, Cytiva) was injected into all channels for 60 s at […] twice, with an extra buffer wash and four carry-over control steps to prevent residual SDS from disrupting the following cycle.
All single-cycle kinetic SPR traces shown were double-referenced (unless indicated) within the Biacore S200 Evaluation Software 1.0, exported as a.txt file, and imported (decimated) into GraphPad Prism (version 9.3.1 for Mac, GraphPad Software, San Diego, CA). For clarity, in some cases individual outlier data points (at buffer transitions) were removed when this would not change the overall data or conclusions.

[3] = test system: E. coli PmrA^G53E+rifampicin; test: Rifampicin potentiation / outer membrane permeability, E. coli PmrA^G53E; assay type: cell-based
Experimental: as §2

wt-OMVs [4] = test: SPR chaser analysis (residence time), wt-OMVs; assay type: binding, E. coli; conditions: 25 °C, n≥3, (SD)
Experimental: (§3) The off-rate of the tightly bound fraction was estimated using a chaser analysis, where OMVs were pre-saturated with polymyxin B and then re-saturated after an extended time interval (Supplementary Information Fig. S11A). […] A t1/2 of >6 h was determined for polymyxin B binding to OMVs at both 25 and 37 °C (SI Table S3). The t1/2 of brevicidine, also measured by chaser analysis, was approximately 1 h on both wt-OMVs and polymyxin-resistant-OMVs (SI Table S3).
(§4) Binding and kinetic analysis of SPR-OMV assays […]
To determine the residence time of the test compound with OMVs, the ‘chaser method’ was used because it accounts for drift that can occur in the system over long incubation times 13. OMVs were loaded onto the chip as described above then 5 µM polymyxin B was injected using the ‘low-sample consumption’ setting for 300 sec ([…] flow rate), followed by a 240 sec dissociation time. A second dose of 5 µM polymyxin B was then injected for 60 sec ([…]) to assure saturation followed by a 2 h dissociation time prior to the ‘chaser’, a 60 sec pulse of 5 µM polymyxin B. The RUs of associated polymyxin B were determined 120 sec after the start of the dissociation. The change in RUs from before dosing to after the second dose, and the change in RUs from prior to the ‘chaser’ dose and 120 sec after the start of its dissociation were used to calculate the fraction occupancy of the material and the residence time/half-life as described 13. […]
PMBN) to LPS for 20 min. […]
20 sec with a Solarus plasma cleaner (Gatan). Grids were blotted and plunge-frozen by Vitrobot (ThermoFisher Scientific, Waltham, MA) at 4°C, 100% relative humidity, blot force 7, and a 3 sec […]
TEM data collection was performed using a Titan Krios G3i (ThermoFisher Scientific, Waltham, MA) operating at 300 kV equipped with a BioQuantum energy filter and a K3 Summit direct electron detector operating at a nominal magnification of 105,000x (0.838 Å/pixel), an energy slit width of 20 eV, defocus range -1 to -3 μm, 3-sec exposure time, 60 frames per movie, a total electron fluence of ~64 e/Å2. Microscope and camera automation was accomplished by SerialEM14, and image processing (motion correction & CTF estimation) was performed using […]
Standard cryo-EM image processing software and methods were incompatible with the vesicle images, so a blinded visual scoring method for image analysis was used. Approximately 50 images from each sample and treatment condition that each contained at least one OMV (pooled in a single folder and blinded) were scored for number of vesicles touching (0-10+), and if the vesicle membranes appeared disrupted or abnormal. Sampling was not completely random as images of vesicles could not be obtained from areas with significant clumping. Images shown in […]

resistant-OMVs = test: SPR chaser analysis (residence time), resistant-OMVs; assay type: binding, E. coli
Experimental: as §3, §4
To determine the residence time of the test compound with OMVs, the ‘chaser method’ was used because it accounts for drift that can occur in the system over long incubation times 13. […] A second dose of 5 µM polymyxin B was then injected for 60 sec ([…]) to assure saturation followed by a 2 h dissociation time prior to the ‘chaser’, a 60 sec pulse of 5 µM polymyxin B. The RUs of associated polymyxin B were determined 120 sec after the start of the dissociation. […]
Standard cryo-EM image processing software and methods were incompatible with the vesicle images, so a blinded visual scoring method for image analysis was used. Approximately 50 images from each sample and treatment condition that each contained at least one OMV (pooled in a single folder and blinded) were scored for number of vesicles touching (0-10+), and if the vesicle membranes appeared disrupted or abnormal. […]

E. coli WT+rifampicin = test: Rifampicin potentiation / outer membrane permeability, wild-type E. coli; assay type: cell-based; conditions: rifampicin 1.56 µM; LB + 0.0005% tween-80, overnight 37 °C
Experimental: as §2

Compound	SPR binding profile [1]	MIC in presence of rifampicin (E. coli mcr-1+rifampicin) [µM]	antibacterial activity (E. coli mcr1)	antibacterial activity (E. coli PmrA^G53E)	MIC (S. aureus WT) [µM]	SPR binding profile (wt-OMVs [2])	MIC in presence of rifampicin [3] [µM]	t1/2 (wt-OMVs [4])	t1/2 (resistant-OMVs; 25 °C, OMVs from PmrA^G53E and pmcr1 strains (n=2 each), (SD))	t1/2 of bound complex (resistant-OMVs; polymyxin-resistant-OMVs)	MIC in presence of rifampicin (E. coli WT+rifampicin) [µM]
CCC(C)CCC(=O)N[C@H](CC(N)=O)C(=O)N[C@H](Cc1ccc(O)cc1)C(=O)N[C@H](Cc1c[nH]c2ccccc12)C(=O)N[C@H](CCCN)C(=O)N[C@@H](CCCN)C(=O)NCC(=O)N[C@H](CCCN)C(=O)N[C@@H](Cc1c[nH]c2ccccc12)C(=O)N[C@@H]1C(=O)N[C@@H]([C@@H](C)CC)C(=O)NCC(=O)N[C@@H](CO)C(=O)O[C@@H]1C (stereo partly drawn) [Brevicidine] ({Hexanoyl(4ξ-Me)}-[dN][dY][dW][dOrn][Orn]G[dOrn]WTIGS; ester 9-C; N-terminus assumed)	indistinguishable from its binding to wt-OMVs; also recorded: identical response to wt-OMVs and resistant-OMVs	0.078	exhibits antibacterial activity against strains with polymyxin-resistant lipid A modifications	exhibits antibacterial activity against strains with polymyxin-resistant lipid A modifications	> 40	accumulation of a tightly bound species and a superimposed saw-tooth profile	0.078	1.09 (0.20) h	1.17 (0.57) h	approximately 1 h	0.078
Colistin						dominated by the accumulation of tightly bound polymyxin B and a superimposed saw-tooth profile associated with transient binding					
